Measured values reported in patent US20220267444A1, “ANTI-PD-1 ANTIBODY AND MEDICAL USE THEREOF” (CTTQ-AKESO (SHANGHAI) BIOMED. TECH. CO., LTD., priority 2019, published 2022).

How the values were obtained:
[1] = tested on: CHO-K1-PD1 cells; test: Antibody-mediated phagocytic activity (ADCP) of murine macrophages on CHO-K1-PD1; format: cell-based, mouse; settings: CHO-K1-PD1-CFSE target cells
Procedure: To detect the antibody dependent cellular phagoxytosis (ADCP) activity, murine macrophages were used as effector cells and cell lines overexpressing PD1 were used as target cells. The femoral bone marrow of Blab/c mice (purchased from Guangdong Medical Laboratory Animal Center) was first aseptically collected and lysed by erythrocyte lysis buffer on ice for 5 min. The lysis was terminated with DMEM complete medium (containing 10% FBS), and the lysate was centrifuged at 1000 rpm and washed twice. The cell pellet was resuspended in 10 mL of DMEM complete medium and M-CSF were added at a working concentration of 100 ng/mL. […] The supernatant was discarded and the cells were suspended in DMEM complete medium (containing 10% FBS) and counted. […] CHO-K1-PD1 cells (a CHO-K1 cell line overexpressing PD1) were centrifuged at 170×g for 5 min, washed once with PBS, resuspended and counted. The viability was determined. […]
The test antibodies were diluted in DMEM complete medium to 20, 2 and 0.2 μg/mL (the working concentrations were 10, 1 and 0.1 μg/mL). […] The cells were transferred to loading tube and analyzed by BD FACS Calibur flow cytometer. […] The phagocytosis rate was determined as the ratio of the number of double positive cells to the number of APC positive cells, and the antibody-mediated ADCP activity was evaluated. […]

[2] = tested on: human nasopharyngeal cancer CNE-2Z cells; test: Raji-PDL1, PBMC and CNE-2Z co-culture with antibodies and anlotinib, IL-2 ELISA; format: cell-based; settings: CNE-2Z co-culture, 3 days; compared to the anti-HEL antibody and the anlotinib monotherapies
Procedure: PBMCs were isolated from healthy human peripheral blood according to the Ficoll-Paque™ Plus reagent instruction, and the isolated PBMCs were counted and frozen. Raji-PDL1 and CNE-2Z cells (purchased from GuangZhou Jennio Biotech Co., Ltd.) were cultured in RPMI 1640+10% FBS complete medium. PBMCs were thawed and activated with 0.5 μg/mL SEB for two days. On the day of the experiment, Raji-PDL1 cells were treated with 2 μg/mL MMC for 1 h. SEB-activated PBMCs and MMC-treated Raji-PDL1 cells were collected, washed twice with PBS, resuspended in RPMI 1640+10% FBS complete medium and counted. Raji-PDL1 and PBMC cells were seeded on 96-well plates at 1×10^5 cells/well. CNE-2Z cells in logarithmic growth phase were collected and seeded on the 96-well plate at 3×10^4 cells/well. The diluted antibodies and anlotinib were added according to the study design. The mixture was mixed evenly and incubated in a 5% CO2 incubator at 37° C. for 3 days. After 3 days, the cell culture supernatant was collected and tested for IL-2 according to ELISA KIT instruction. The media in this experiment were all 10% FBS+RPMI 1640.

[3] = tested on: MSI-H/dMMR tumor SW48 cells; test: Raji-PDL1, PBMC and SW48 co-culture with antibodies and anlotinib, IL-2 ELISA; format: cell-based, human; settings: 3 days, compared to anti-HEL antibody
Procedure: SW48 is a human colorectal cancer cell line and is identified with MSI-H/dMMR phenotype (Branch P et al., (1995), Cancer Res, 55(11): 2304-2309). It was used for detecting the enhanced immune cell response to tumor of MSI-H/dMMR phenotype by 14C12H1L1(hG1TM).
PBMCs were isolated from healthy human peripheral blood according to the Ficoll-Paque™ Plus reagent instruction, and the isolated PBMCs were counted and frozen. Raji-PDL1 cells were cultured in RPMI 1640+10% FBS complete medium, and SW48 cells (purchased from GuangZhou Jennio Biotech Co., Ltd.) were cultured in DMEM+10% FBS complete medium. PBMCs were thawed and activated with 0.5 μg/mL SEB for two days. On the day of the experiment, Raji-PDL1 cells were treated with 2 μg/mL MMC for 1 h. SEB-activated PBMCs and MMC-treated Raji-PDL1 cells were collected, washed twice with PBS, resuspended in RPMI 1640+10% FBS complete medium and counted. Raji-PDL1 and PBMC cells were seeded on 96-well plates at 1×10^5 cells/well. SW48 cells in logarithmic growth phase were collected and seeded on the 96-well plate at 2×10^5 cells/well. The diluted antibody and anlotinib was added according to the study design. The mixture was mixed evenly and incubated in a 5% CO2 incubator at 37° C. for 3 days. After 3 days, the cell culture supernatant was collected and tested for IL-2 according to ELISA KIT instruction. […]

[4] = tested on: human colorectal cancer SW837 cells; test: Raji-PDL1, PBMC and SW837 co-culture, IL-2 ELISA; format: cell-based; settings: 3 days
Procedure: SW837 is a human colorectal cancer cell line of non-MSI-H/dMMR (i.e., MSS) phenotype (Guo J et al., Cancer Res., 2011; 71(8):2978-2987), and was used for detecting the enhanced immune cell response to tumor of non-MSI-H/dMMR (i.e., MSS) phenotype by 14C12H1L1(hG1TM) in this example.
PBMCs were isolated from healthy human peripheral blood according to the Ficoll-Paque™ Plus reagent instruction, and the isolated PBMCs were counted and frozen. Raji-PDL1 cells were cultured in RPMI 1640+10% FBS complete medium, and SW837 cells (purchased from Shanghai Honsun Biological Technology Co., Ltd) were cultured in 10% FBS+Leibovitz's L-15 complete medium (purchased from Gibco). PBMCs were thawed and activated with 0.5 μg/mL SEB for two days. On the day of the experiment, Raji-PDL1 cells were treated with 2 μg/mL MMC for 1 h. SEB-activated PBMCs and MMC-treated Raji-PDL1 cells were collected, washed twice with PBS, resuspended in RPMI 1640+10% FBS complete medium and counted. Raji-PDL1 and PBMC cells were seeded on 96-well plates at 1×10^5 cells/well. SW837 cells in logarithmic growth phase were collected and seeded on the 96-well plate at 5×10^4 cells/well. The diluted antibody was added according to the study design. The mixture was mixed evenly and incubated in a 5% CO2 incubator at 37° C. for 3 days. […]

## nivolumab: anti-PD-1 antibody nivolumab (trade name: Opdivo), purchased from Bristol-Myers Squibb [reference compound]
[1]
  ADCP effect: have ADCP effects
[1]; at the same concentration, 2 h, flow cytometry
  phagocytic rate relative to that of the isotype control anti-HEL antibody: 4.26 times
[2]
  immune response of immune cells (IL-2 secretion level): significantly increased IL-2 secretion level
[3]
  immune response of immune cells (secretion level of IL-2): significantly increased secretion level of IL-2
[4]
  immune response of immune cells (IL-2): significantly enhanced the immune response
